Data published in patent US8778966B2, “Quinolinone derivatives as PARP and tank inhibitors” (Janssen Pharmaceutica, NV, priority 2007, dated 2014).

Columns and labels:
Human PARP-1 enzyme = biological target: T1, Human PARP-1 enzyme (Homo sapiens, UniProt P09874); experiment: In vitro Scintillation Proximity Assay (SPA) for PARP-1 inhibitory activity; assay type: biochemical; details: read-out: in vitro SPA assay PARP-1 pIC50 (converted)
T1 construct: purchased Trevigen
Experimental: Compounds of the present invention were tested in an in vitro assay based on SPA technology (proprietary to GE healthcare).
In principle, the assay relies upon the well established SPA technology for the detection of poly(ADP-ribosyl)ation of biotinylated target proteins, i.e histones. This ribosylation is induced using nicked DNA activated PARP-1 enzyme and [^3H]-nicotinamide adenine dinucleotide ([^3H]-NAD^+) as ADP-ribosyl donor.
Histones (type II-A, supplier: Sigma) were biotinylated using the biotinylation kit of Amersham and stored aliquoted at −20° C. A stock solution of 100 mg/ml SPA poly(vinyl toluene) (PVT) beads (supplier: Amersham) was made in PBS. A stock solution of 61.6 nM [^3H]-NAD^+ was made by adding [^3H]-NAD^+ (0.1 mCi/ml, supplier: Perkin Elmer) to incubation buffer (50 mM Tris/HCl, pH 8; 0.2 mM DTT; 4 mM MgCl2). A solution of 4 mM NAD^+ (supplier: Sigma) was made. Human PARP-1 enzyme was obtained from Trevigen. Biotinylated histones and PVT-SPA beads were mixed and pre-incubated for 30 min. at room temperature. PARP-1 enzyme (concentration was lot dependent) was mixed with the nicked DNA and the mixture was pre-incubated for 30 min. at 4° C. Equal parts of this histones/PVT-SPA beads solution and PARP-1 enzyme/DNA solution were mixed and 75 μl of this mixture together with 1 μl of compound in DMSO and 25 μl of [^3H]-NAD^+ was added per well into a 96-well microtiterplate. The final concentrations in the incubation mixture were 2 μg/ml for the biotinylated histones, 2 mg/ml for the PVT-SPA beads, 0.25 μg/ml for the nicked DNA and between 0.1-0.2 μg/ml for the PARP-1 enzyme. After incubation of the mixture for 20 min. at room temperature, the reaction was terminated by adding 100 μl of 4 mM NAD^+ in water (final concentration 2 mM) and plates were mixed. The beads were sedimented by centrifugation (10 min, 800 rpm). and plates transferred to a TopCountNXT™ (Packard) for scintillation counting, values were expressed as counts per minute (cpm). For each experiment, controls (containing PARP-1 enzyme and DMSO without compound), a blank incubation (containing DMSO but no PARP-1 enzyme, no DNA or compound) and samples (containing PARP-1 enzyme, DNA and compound dissolved in DMSO) were run in parallel. All compounds tested were dissolved and eventually further diluted in DMSO. A dose-response curve was made wherein the compounds were tested at concentrations between 10^−5M and 3×10^−9M. In each test, the blank value was subtracted from both the control and the sample values. The control sample represented maximal PARP-1 enzyme activity. For each sample, the amount of cpm was expressed as a percentage of the mean cpm value of the controls. When appropriate, IC50-values (concentration of the drug, needed to reduce the PARP-1 enzyme activity to 50% of the control) were computed using linear interpolation between the experimental points just above and below the 50% level. Herein the effects of test compounds are expressed as pIC50 (the negative log value of the IC50-value). As a reference compound, 4-amino-1,8-naphthalimide was included to validate the SPA assay.

TANK-2 enzyme = biological target: T2, TANK-2 enzyme (Homo sapiens, UniProt Q9H2K2); experiment: In vitro Scintillation Proximity Assay (SPA) for TANK-2 inhibitory activity; assay type: biochemical; details: in vitro SPA assay TANK-2 pIC50
T2 construct: made in house
T2 sequence (Q9H2K2 1-1166): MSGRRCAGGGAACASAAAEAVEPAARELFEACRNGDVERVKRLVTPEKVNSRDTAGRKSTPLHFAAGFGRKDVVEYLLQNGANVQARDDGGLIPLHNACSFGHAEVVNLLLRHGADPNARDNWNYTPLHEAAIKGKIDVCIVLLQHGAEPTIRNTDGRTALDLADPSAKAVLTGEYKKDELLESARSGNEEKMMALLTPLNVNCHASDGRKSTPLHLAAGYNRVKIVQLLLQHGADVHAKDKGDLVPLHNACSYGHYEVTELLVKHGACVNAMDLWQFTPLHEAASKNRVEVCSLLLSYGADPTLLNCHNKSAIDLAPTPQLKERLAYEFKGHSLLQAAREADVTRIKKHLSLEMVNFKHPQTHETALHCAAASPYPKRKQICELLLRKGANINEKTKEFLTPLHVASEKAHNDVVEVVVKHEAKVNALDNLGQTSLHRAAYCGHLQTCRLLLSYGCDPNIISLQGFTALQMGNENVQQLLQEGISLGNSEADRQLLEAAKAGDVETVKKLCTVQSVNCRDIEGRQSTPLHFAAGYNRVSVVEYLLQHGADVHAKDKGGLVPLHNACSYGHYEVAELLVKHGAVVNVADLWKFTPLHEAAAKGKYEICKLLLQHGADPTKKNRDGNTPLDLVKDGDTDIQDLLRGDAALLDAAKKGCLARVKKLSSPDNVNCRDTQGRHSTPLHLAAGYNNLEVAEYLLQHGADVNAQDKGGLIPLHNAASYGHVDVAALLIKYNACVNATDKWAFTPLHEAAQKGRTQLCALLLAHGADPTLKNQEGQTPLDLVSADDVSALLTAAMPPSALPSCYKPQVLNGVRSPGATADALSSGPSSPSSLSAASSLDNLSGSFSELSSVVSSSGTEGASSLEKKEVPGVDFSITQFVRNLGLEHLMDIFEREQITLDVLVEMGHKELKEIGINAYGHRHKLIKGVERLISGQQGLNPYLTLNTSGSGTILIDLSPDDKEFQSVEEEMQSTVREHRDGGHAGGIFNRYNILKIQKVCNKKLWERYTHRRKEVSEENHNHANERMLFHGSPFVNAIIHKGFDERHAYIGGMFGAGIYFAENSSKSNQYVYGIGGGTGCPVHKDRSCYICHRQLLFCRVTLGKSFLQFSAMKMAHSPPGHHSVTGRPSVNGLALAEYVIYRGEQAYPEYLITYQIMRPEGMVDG
Experimental: Compounds of the present invention were tested in an in vitro assay based on SPA technology with Ni Flash plates (96 or 384 well). In principle, the assay relies upon SPA technology for the detection of auto-poly(ADP-ribosyl)ation of TANK-2 protein using [^3H]-nicotinamide adenine dinucleotide ([^3H]-NAD^+) as ADP-ribosyl donor.
A stock solution of 100 nM [3H]-NAD^+/NAD (0.1 mCi/ml, supplier: Perkin Elmer) and 0.25 μM NAD (Sigma) was made in assay buffer (60 mM Tris/HCl, pH 7.4; 0.9 mM DTT; 6 mM MgCl2). The TANK-2 enzyme was produced as described in EP1238063. 60 μl of assay buffer, together with 1 μl of compound in DMSO, 20 μl of [^3H]-NAD^+/NAD and 20 μl of TANK-2 enzyme (final concentration 8 μg/ml) was added per well into a 96-well Ni-coated flash plate (Perkin Elmer). After incubation of the mixture for 120 min. at room temperature, the reaction was terminated by adding 60 μl of stopsolution (42.6 mg NAD in 6 ml H2O). The plates were covered with a plate sealer and placed in a TopCountNXT™ (Packard) for scintillation counting. Values were expressed as counts per minute (cpm). For each experiment, controls (containing TANK-2 enzyme and DMSO without compound), a blank incubation (containing DMSO but no TANK-2 enzyme or compound) and samples (containing TANK-2 enzyme and compound dissolved in DMSO) were run in parallel. All compounds tested were dissolved and eventually further diluted in DMSO. In first instance, compounds were tested at a concentration of 10^−5M. […] In each test, the blank value was subtracted from both the control and the sample values. The control sample represented maximal TANK-2 enzyme activity. For each sample, the amount of cpm was expressed as a percentage of the mean cpm value of the controls. When appropriate, IC50-values (concentration of the drug, needed to reduce the TANK-2 enzyme activity to 50% of the control) were computed using linear interpolation between the experimental points just above and below the 50% level. Herein the effects of test compounds are expressed as pIC50 (the negative log value of the IC50-value). As reference compounds, 3-aminobenzamide and 4-amino-1,8-naphtalimide were included to validate the SPA assay. Herein the assay was described using 96-well plates. In the assay using 384-well plates the same final concentrations were used and volumes were adapted.

T1 sequence (P09874 whole entry): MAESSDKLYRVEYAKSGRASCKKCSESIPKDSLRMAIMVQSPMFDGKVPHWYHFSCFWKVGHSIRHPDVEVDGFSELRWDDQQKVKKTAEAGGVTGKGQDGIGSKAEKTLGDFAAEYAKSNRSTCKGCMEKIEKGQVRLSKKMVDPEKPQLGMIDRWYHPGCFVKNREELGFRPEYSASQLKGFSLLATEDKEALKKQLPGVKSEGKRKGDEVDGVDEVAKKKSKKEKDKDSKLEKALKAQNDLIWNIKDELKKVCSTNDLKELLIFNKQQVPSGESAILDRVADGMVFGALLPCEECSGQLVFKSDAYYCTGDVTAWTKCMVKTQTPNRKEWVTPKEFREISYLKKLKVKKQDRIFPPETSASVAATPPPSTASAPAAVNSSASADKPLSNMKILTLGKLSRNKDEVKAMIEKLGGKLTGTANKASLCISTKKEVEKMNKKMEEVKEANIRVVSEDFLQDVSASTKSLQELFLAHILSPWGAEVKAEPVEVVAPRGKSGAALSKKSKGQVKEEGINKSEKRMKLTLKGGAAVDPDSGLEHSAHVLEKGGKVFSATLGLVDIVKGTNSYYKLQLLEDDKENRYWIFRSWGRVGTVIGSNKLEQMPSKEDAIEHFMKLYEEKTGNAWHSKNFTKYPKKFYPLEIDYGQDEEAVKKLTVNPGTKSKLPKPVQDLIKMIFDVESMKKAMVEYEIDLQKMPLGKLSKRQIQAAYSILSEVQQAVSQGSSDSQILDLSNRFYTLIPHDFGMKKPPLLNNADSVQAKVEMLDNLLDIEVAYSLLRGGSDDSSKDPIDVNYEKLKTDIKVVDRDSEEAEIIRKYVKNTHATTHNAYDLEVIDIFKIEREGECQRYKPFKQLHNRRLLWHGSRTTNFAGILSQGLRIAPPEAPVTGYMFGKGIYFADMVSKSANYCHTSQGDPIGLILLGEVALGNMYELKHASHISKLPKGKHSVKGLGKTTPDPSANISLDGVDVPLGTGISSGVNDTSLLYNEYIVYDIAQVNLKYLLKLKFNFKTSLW

IC50 (Human PARP-1 enzyme): 50.1 nM | IC50 (TANK-2 enzyme): 79.4 nM | melting point: 179 °C
Compound: CCc1cc2ccc(C(C)(C#N)Cc3nc(C#N)cc(OC)n3)cc2[nH]c1=O (single isomer, unassigned) [Compound 203]
